Test results as given in ChEMBL document CHEMBL3507680, “University of Dundee, Gates Library screen for HepG2 cell viability”.

Test: Human HepG2 cell viability assay in 384 well format
Type: toxicity, cell-based
Set-up: dose 125 nL, time 70.5 hour; concentration not given beside the values
Details: HepG2 cells, read-out: Inhibition

Cc1cc(C)c2c(N3CCN(C(=O)N(C)C)CC3)ncnc2n1
cytotoxicity at 70.5 h: -3.44%

CN(Cc1n[nH]c2c1CCC2)C(=O)c1cccc(CCC(C)(C)O)c1
cytotoxicity at 70.5 h: 1.92%

Cc1cccc2[nH]c(C3CCCN3Cc3ccc(CO)o3)nc12 (stereo unspecified)
cytotoxicity at 70.5 h: -9.7%

CCc1[nH]c2c(CNC(=O)C3CNC(=O)C3)cc(C)cc2c1C (stereo unspecified)
cytotoxicity at 70.5 h: -11.3%

Cc1nc2c(c(NCC(c3cccnc3)N3CCOCC3)n1)CCNC2 (stereo unspecified)
cytotoxicity at 70.5 h: -15.5%

OCC1(O)CCCN(Cc2noc(-c3ccccc3)n2)CC1 (stereo unspecified)
cytotoxicity at 70.5 h: 26.3%

Cc1nonc1CN(C)Cc1nc(-c2ccccc2Cl)oc1C
cytotoxicity at 70.5 h: -7.91%

CCN1CCC(Cn2ccc3ccc(C(=O)OC)cc3c2=O)C1 (stereo unspecified)
cytotoxicity at 70.5 h: -6.6%

COCCCN1C(=O)CC[C@H]2CN(c3cnc4ccccc4n3)CC[C@H]21
cytotoxicity at 70.5 h: 25%

N#Cc1ccccc1C(=O)NCCC1CN(Cc2ccco2)CCO1 (stereo unspecified)
cytotoxicity at 70.5 h: 2.72%

NC(=O)c1cc2c(nc1-c1ccoc1)CCC2
cytotoxicity at 70.5 h: -6.2%

CC1(C)CN(CCC(=O)NCc2cccc(Cl)c2)CC[C@]1(C)O
cytotoxicity at 70.5 h: -9.57%

Cc1cc(C(=O)N2CCCC(c3nccn3Cc3ccncc3)C2)no1 (stereo unspecified)
cytotoxicity at 70.5 h: -12.9%

CCC(O)CNc1nccc(-c2ccc(C)nc2C)n1 (stereo unspecified)
cytotoxicity at 70.5 h: -14.6%

CC(C(=O)O)N1CC2(CCC1=O)CCN(CCc1ccccc1)CC2 (stereo unspecified)
cytotoxicity at 70.5 h: -11%

Clc1ccc(CN2CCC(C3CCN(Cc4cccnc4)CC3)C2)cc1 (stereo unspecified)
cytotoxicity at 70.5 h: -2.87%

CCCSCC(=O)N1C[C@H]2CC[C@@H]1CN(c1ncccn1)C2
cytotoxicity at 70.5 h: -14.1%

Cc1nnsc1CN1C[C@@H]2CC[C@H](C1)N(Cc1ccccc1)C2
cytotoxicity at 70.5 h: 8.69%

O=C(CSCC1CC1)N1CCc2[nH]nc(COc3ccccc3)c2C1
cytotoxicity at 70.5 h: -6.96%

Cc1nc2sccn2c1C(=O)N1CCn2nc(C(=O)NC3CC3)cc2C1
cytotoxicity at 70.5 h: -11.6%

Cc1cc(C(=O)N2CCc3[nH]nc(-c4ccc5c(c4)OCO5)c3C2)no1
cytotoxicity at 70.5 h: 1.25%

CCc1cccc(OCCN(C)C(=O)c2ccccc2NCC(=O)O)c1
cytotoxicity at 70.5 h: -13.6%

CSCCCN1CCN(c2ccc(Cl)cn2)CC1
cytotoxicity at 70.5 h: -5.7%

CC(C)=CCC1(C(=O)O)CCCN(c2ccnc(C)n2)C1 (stereo unspecified)
cytotoxicity at 70.5 h: -3.8%

COCC1(C(=O)N[C@H]2CN(c3nnc(C)s3)C[C@@H]2C2CC2)CCC1
cytotoxicity at 70.5 h: 7.64%

CCN(Cc1nc(COC)no1)C[C@]1(O)CCCN2CCCC[C@@H]21
cytotoxicity at 70.5 h: -10.1%

Cc1nc(NCCSc2nnc(C)s2)c2cccnc2n1
cytotoxicity at 70.5 h: -14.5%

CN(C)CCn1ccnc1C1CCN(C(=O)CCc2ccncc2)CC1
cytotoxicity at 70.5 h: -5.61%

CN1CCCN(C[C@@H]2CN(C(=O)CC3CCC3)C[C@@H]2CO)CC1
cytotoxicity at 70.5 h: -2.25%

CNC(=O)c1noc(Cn2ncc3ccccc3c2=O)n1
cytotoxicity at 70.5 h: 0.589%

CCCc1nc(C(=O)N2CCN(C(=O)OC)CC2)cs1
cytotoxicity at 70.5 h: -4.71%

COc1cc(C)ccc1C(=O)N1CCC2(CCC(=O)N(C(C)C)C2)CC1
cytotoxicity at 70.5 h: -4.16%

COc1ccc(C2(C(=O)N3CC(c4cccnc4)C3)CC2(C)C)cc1 (stereo unspecified)
cytotoxicity at 70.5 h: -0.294%

CCN1CC2(CCN(C(=O)C3CSC(C)(C)C(=O)N3)CC2)CC1=O (stereo unspecified)
cytotoxicity at 70.5 h: -6.11%

Cc1ccc2nc(C3CCCN3Cc3nnc(C)s3)[nH]c2c1 (stereo unspecified)
cytotoxicity at 70.5 h: 26.6%

CCc1nnc(CN(C)C(=O)C2CC(=O)N(C3CC3)C2)o1 (stereo unspecified)
cytotoxicity at 70.5 h: -6.39%

CCCn1cc(-c2ccnc(NC3CCCc4ccccc43)n2)c(C)n1 (stereo unspecified)
cytotoxicity at 70.5 h: 18.9%

Cc1cc2nc(C(C)C)cc(N[C@H](C(N)=O)C(C)C)n2n1
cytotoxicity at 70.5 h: 32.4%

Cc1ccc2nc(-c3nc4c([nH]3)CCCNC4=O)cn2c1
cytotoxicity at 70.5 h: -10.1%

CC(=O)NCC1CCC2(CCN(c3ncc(C)cn3)CC2)O1 (stereo unspecified)
cytotoxicity at 70.5 h: -3.04%

COc1ccc(-n2cccn2)cc1S(=O)(=O)N1C[C@H](C2CC2)[C@@H](N)C1
cytotoxicity at 70.5 h: -3.3%

Cc1cccc(C(C(=O)NCc2nc(-c3cccnc3)no2)N(C)C)c1 (stereo unspecified)
cytotoxicity at 70.5 h: 19.5%

CCc1cnc(NCC(C)Oc2cccnc2)nc1 (stereo unspecified)
cytotoxicity at 70.5 h: -5.39%

CCc1cc(N[C@H]2CCC[C@H]2O)n2nccc2n1
cytotoxicity at 70.5 h: 7.67%

CN1CCCN(C[C@H]2C[C@H](CO)CN(Cc3cccnc3N)C2)CC1
cytotoxicity at 70.5 h: 22.4%

COC(=O)NCC(=O)N1CCCCC1c1nc2cc(F)ccc2[nH]1 (stereo unspecified)
cytotoxicity at 70.5 h: 1.25%

COCC[C@]1(O)CCN(C(=O)CCn2c(C)cccc2=O)C[C@H]1C
cytotoxicity at 70.5 h: 12.1%

CN(Cc1n[nH]c2c1CCC2)C(=O)CCc1cc2n(n1)CCNC2
cytotoxicity at 70.5 h: -4.27%

O=C(NCCc1csc(-c2ccncc2)n1)C1CC(=O)N(C2CC2)C1 (stereo unspecified)
cytotoxicity at 70.5 h: -3.67%

CC[C@H](C)[C@@H](CO)NC(C)Cc1ccccc1F (stereo partly specified)
cytotoxicity at 70.5 h: -2.57%

Cn1c(-c2cc3n(n2)CCCN(CC(=O)O)C3)nc2ccccc21
cytotoxicity at 70.5 h: 22.8%

CCCn1cc(S(=O)(=O)N[C@H]2CN(CCO)C[C@@H]2C2CC2)cn1
cytotoxicity at 70.5 h: -7.84%

Cc1ccc(OCC2CCCN(C(=O)Cn3ccccc3=O)C2)cc1 (stereo unspecified)
cytotoxicity at 70.5 h: 25%

CCNc1ncc(C(=O)N2Cc3nc(C)[nH]c(=O)c3C2)cn1
cytotoxicity at 70.5 h: 4.44%

CC(C)(C)n1cc(C2=CCN(CCNC(N)=O)CC2)cn1
cytotoxicity at 70.5 h: -0.0754%

CN1CCC(N(CCc2ccccc2)C(=O)c2ccc(CO)cc2)CC1
cytotoxicity at 70.5 h: -11.1%
